Test system: MNT-1 cells
Assay: Annexin V/PI double labeling, flow cytometry, MNT-1
Assay type: cell-based
Conditions: MNT-1, 6 μM
Protocol: Apoptosis in GC2-treated melanoma cells was detected using Annexin V and PI double labeling assay, see van Engeland, M., et al., Cytometry, 31, 1-9, 1998. Annexin V/PI labeling was applied to both fluorescence microscopy and flow cytometry following the protocol supplied by the manufacturer. Briefly, for fluorescence microscopy analysis adherent cells (approximately 16×10^4) treated with GC2 were washed with annexin V binding buffer, and incubated with Alexa Fluor® 488 Annexin V (5 μl in 1 ml annexin V binding buffer) for 15 min at RT, in the dark, to which 0.2 μg PI was added. Live cells were washed with annexin V binding buffer and examined by microscopy. For flow cytometric analysis, cells treated with GC2 were harvested by trypsinisation and a number of viable cells was counted. 16×10^4 cells were re-suspended in 0.2 ml annexin V binding buffer and treated in the same were adherent cells. Finally, labeled cells were analyzed with a FACScan™ using CellQuest™ software (Becton Dickinson, San Jose, Calif.).
Cells cultured under normal conditions for 24 h were further treated for 5 h, 8 h or 24 h with 6 μM of GC2, labeled with annexin V and PI and quantitatively analyzed by flow cytometry for viable, apoptotic and necrotic populations (FIG. 7).

CC(=O)O.CCCCCCCCCN1[C@@H](CO)[C@@H](O)[C@H](O)[C@@H]1CCCCCCCC [GC2, (2S,3R,4R,5S)-3,4-dihydroxy-N-nonyl-5-octyl-2 hydroxymethylpyrrolidinium acetate]
increase of apoptotic population versus control (5 h): doubled
increase of necrotic fraction versus control (factor) (5 h): 2.3
apoptotic population (5 h, control 3.29%): 6.94%
necrotic fraction (5 h, control 4.24%): 10.07%
increase of apoptotic population versus control (times) (8 h): 3.5
increase of necrotic fraction versus control (factor) (8 h): 2.9
apoptotic population (8 h, control 4.32%): 15.49%
necrotic fraction (8 h, control 5.84%): 17.25%
increase of apoptotic population versus control (times) (24 h): 7.6
increase of necrotic fraction versus control (factor) (24 h): 9.5
necrotic fraction (24 h, control 2.07%): 19.18%
apoptotic population (24 h, control 3.25%): 24.86%

Reference: patent US8957106B2, “Iminosugar treatment of tumors” (The Chancellor, Masters and Scholars of the University of …, priority 2007, dated 2015)
